From PubChem BioAssay AID179 (DTP/NCI, 2004)
Activity calls are given as the source filed them.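 Rule for the calls: active = compounds giving half or more protection of infected cells from virus-caused growth loss, again on retest; inactive = the rest.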

Test system: CEM cells HIV-1 protection, formazan growth assay
Assay: NCI AIDS Antiviral Assay
Settings: for IC50: measured here: growth of uninfected CEM cells
How it was run: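 Human CEM cells, uninfected and HIV-1-infected, exposed to five drug concentrations; growth measured by soluble formazan assay and scored as percent protection from infection, with protecting compounds retested.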

Row | SMILES | EC50 | IC50 | outcome
1 | COc1ccc(C2SCC(=O)N2c2ccc(-n3c(-c4ccccc4)nc4ccccc4c3=O)cc2)cc1OC (centres undefined) | > 200 µM | > 200 µM | –
2 | O=C(CCC(=O)N/N=C/c1ccccc1O)N/N=C/c1ccccc1O | – | – | inactive
3 | CCCCCCCCCCNP(=S)(NCCCCCCCCCC)c1ccccc1 | – | – | inactive
4 | O=C1c2ccccc2C(=O)c2sccc21 | > 200 µM | 7.24 µM | –
5 | C[C@]12C(=O)OC[C@H](c3ccccc3)N1C(=O)N(Cc1ccccc1)[C@@H]2CO | > 200 µM | > 200 µM | –
6 | c1ccc(CNc2nnc(NCc3ccccc3)c3c2ncn3Cc2ccccc2)cc1 | – | – | inactive
7 | c1ccc(CNCCCNCCCCNCCCNCc2ccccc2)cc1 | > 15.1 µM | 1.62 µM | –
8 | CC1=C/C(=C(\c2cc(C)c(O)c(Br)c2)c2ccccc2S(=O)(=O)O)C=C(Br)C1=O | – | – | inactive
9 | CCOC(=O)c1[nH]cc(C)c1-c1cccn1-c1ccc(Cl)cc1[N+](=O)[O-] | > 200 µM | 30.9 µM | –
10 | CCOC(=O)c1c(-c2cc(OC)c(OC)c(OC)c2)csc1N | > 200 µM | 12 µM | –
11 | COC(=O)Cc1cc(=O)n2c3ccccc3n(C)c2c1C#N | > 24.5 µM | > 24.5 µM | –
12 | Cc1cc2c(C(C)C)c(O)c(O)c(C=NCc3ccoc3)c2c(O)c1-c1c(C)cc2c(C(C)C)c(O)c(O)c(C=NCc3ccco3)c2c1O | > 200 µM | 10 µM | –
13 | NS(=O)(=O)c1ccc(NC(=O)c2ccccc2SSc2ccccc2C(=O)Nc2ccc(S(N)(=O)=O)cc2)cc1 | 2.19 µM | 85.1 µM | –
14 | Cc1ccc(S(=O)S(=O)c2ccc(C)cc2)cc1 (centres undefined) | – | – | inactive
15 | CN(C)CC1CCCCCC(CN(C)C)C1=O (centres undefined) | > 20 µM | 1.07 µM | –
16 | COc1cc(C2SC(N)=Nc3c2c(C)nn3C(=O)c2ccccc2O)ccc1O (centres undefined) | > 2 µM | 0.0977 µM | –
17 | COc1ccccc1C1(C)SCc2nc3ccccc3n21 (centres undefined) | > 87.1 µM | 79.4 µM | –
18 | CSc1nc2nc(C)c(C)nc2c(=O)[nH]1 | > 1120 µM | > 1120 µM | –
19 | CN(NC(=O)/C(=C/c1ccc2c(c1)OCO2)NC(=O)c1ccccc1)c1ccnc2cc(Cl)ccc12 | > 200 µM | 10.5 µM | –
20 | COc1ccc(/C=C/C(=O)c2ccc(Br)cc2)cc1 | > 200 µM | 33.1 µM | –
21 | CCCC(CCC(=O)O)(CCC(=O)O)[N+](=O)[O-] | – | – | inactive

Row | SMILES | EC50 | IC50 | outcome
22 | CC(C)(C)OC(=O)NC(Cc1ccc(O)cn1)C(N)=O (centres undefined) | > 200 µM | > 200 µM | –
23 | Cc1ccc(S(=O)(=O)NC(=S)S)cc1 | > 200 µM | > 200 µM | –
24 | COc1cc2c(c(OC)c1OC)C(c1ccc3c(c1)OCO3)C1COC(=O)C1C2 (centres undefined) | > 91.2 µM | > 91.2 µM | –
25 | COc1ccc(C(C#N)NCCCCCCNC(C#N)c2ccc(OC)cc2)cc1 (centres undefined) | > 200 µM | > 200 µM | –
26 | CC1(C)CCC[C@@]2(C)C1CC[C@@]1(CO1)[C@@H]2/C=C\C(C=O)CC=O (some centres undefined) | – | – | inactive
27 | Oc1ccc2ccccc2c1NCn1nc(CCCCCCCCc2nn(CNc3c(O)ccc4ccccc34)c(=S)o2)oc1=S | > 200 µM | 37.2 µM | –
28 | CC(=O)/C(=C/c1cccc(Br)c1)C(=O)c1ccccc1 | > 21.9 µM | 11.2 µM | –
29 | COc1c2c(cc3c1C(=O)Cc1ccc4c(c1CN(C)CC3)OCO4)OCO2 | > 35.5 µM | > 35.5 µM | –
30 | C=CCOC1CC(n2cnc3c(N)ncnc32)OC1CO (centres undefined) | > 200 µM | > 200 µM | –
31 | CC(C)(C)[Si](C)(C)OCc1cccc(OCCOc2cccc(CO[Si](C)(C)C(C)(C)C)c2[N+](=O)[O-])c1[N+](=O)[O-] | > 50.1 µM | > 50.1 µM | –
32 | CC1=C(C#N)c2nc3ccccc3n2C(=O)C1(C)CCO (centres undefined) | > 200 µM | > 200 µM | –
33 | O=S(=O)(F)c1cc(C[P+](c2ccccc2)(c2ccccc2)c2ccccc2)ccc1Cl | > 200 µM | 91.2 µM | –
34 | COc1ccccc1N1C(Cl)C(=O)C1c1c[nH]c2ccccc12 (centres undefined) | > 151 µM | 129 µM | –
35 | CC(=O)CCC1(c2ccccc2)OC(=O)C(C#N)=C1c1ccccc1 (centres undefined) | – | – | inactive
36 | O=C(O)c1cc(-n2c(-c3ccccc3)cc3c2CCc2ccccc2-3)ccc1O | – | – | inactive
37 | CCOC(=O)C(C/C(C)=C/c1ccccc1)C(=O)OCC | > 200 µM | 182 µM | –
38 | Cn1c(=O)nc2n(-c3cccc(Cl)c3)c3ccccc3nc-2c1=O | – | – | inactive
39 | CC(OCc1ccccc1)C1OC2(C)CCC(=O)C1O2 (centres undefined) | – | – | inactive
40 | CCC1C/C(=N\N=C2CC(C)(C)NC(C)(C)C2)CC(C)(C)N1 (centres undefined) | > 200 µM | > 200 µM | –
41 | CNC(=O)CN(CC(=O)NC)C(=O)NC | > 120 µM | > 120 µM | –
42 | COc1ccc(NCc2cccc3c(=O)c4ccc(Cl)cc4oc23)cc1 | 3.47 µM | 25.1 µM | –

Row | SMILES | EC50 | IC50 | outcome
43 | CON(C)C(=O)[C@H]1C[C@@]1(C)CO | > 200 µM | > 200 µM | –
44 | [O]=[Sb]([OH])([OH])[c]1ccc(Br)cc1 | > 200 µM | 35.5 µM | –
45 | CN(C)/C=C1\CCc2ccc([N+](=O)[O-])cc2C1=O | > 200 µM | 93.3 µM | –
46 | O=C1[C@@H]2[C@H](C(=O)N1c1ccccc1)[C@H]1CC[C@H]2N1C(=O)c1ccccc1 | > 55 µM | > 55 µM | –
47 | Oc1c(O)c(Cc2ccccc2)c(Cc2ccccc2)c(Cc2ccccc2)c1Cc1ccccc1 | > 200 µM | 32.4 µM | –
48 | COC1(OC)CC2C(=O)N(Cc3ccccc3)C1C(S(=O)(=O)c1ccccc1)C2C(C)S(=O)(=O)c1ccccc1 (centres undefined) | > 23.4 µM | > 23.4 µM | –
49 | CNc1nc(OC)c2c(n1)[n+](C)cn2C | > 200 µM | 61.7 µM | –
50 | c1ccc(NNN2NC(c3ccccc3)C2c2ccccc2)cc1 (centres undefined) | > 200 µM | > 200 µM | –
51 | N=C(N)SCc1ccc2c(c1)Sc1ccccc1O2 | > 200 µM | 11.7 µM | –
52 | Nc1ccc(N=Nc2ccc(-c3ccc(O)cc3)cc2)c2ccc(S(=O)(=O)O)cc12 | 7.94 µM | > 200 µM | –
53 | CCc1cccc(C(C)C)c1NC(=O)C(=O)Nn1c(=S)[nH]c2ccccc2c1=O | > 123 µM | > 123 µM | –
54 | Cc1cc2c(cc1C)[n+](=O)c(N1CCN(c3ccc([N+](=O)[O-])cc3)CC1)c(C#N)n2[O-] | > 50.1 µM | > 50.1 µM | –
55 | CN1BN(C)BN(C)B1 | > 2040 µM | > 2040 µM | –
56 | CCOC(=O)c1c(N2CCCC2)nsc1Nc1ccccc1 | > 200 µM | 145 µM | –
57 | CN(C)C1C(=O)C(C(=O)NCNCCC(=O)O)=C(O)C2(O)C(=O)C3=C(O)c4c(O)cccc4C(C)(O)C3CC12 (centres undefined) | > 11.2 µM | > 11.2 µM | –
58 | C=CC(C1=CC(=O)C(OC)=CC1=O)c1ccccc1 (centres undefined) | – | – | inactive
59 | Cc1c(-c2ccc(-c3ccccc3F)cc2)nc2ccc(F)cc2c1C(=O)O | > 631 µM | 0.2 µM | –
60 | [N-]=[N+]=Nc1c(Cc2ccccc2)c(=O)oc2ccccc12 | > 200 µM | 32.4 µM | –
61 | COc1cc(/C=C2/SC(c3ccccc3)N(c3cc(Cl)ccc3Cl)C2=O)cc(OC)c1OC (centres undefined) | > 200 µM | 70.8 µM | –
62 | CNC(=S)NNC(=O)c1c(C)nc2sccn12 | > 933 µM | 575 µM | –
63 | [N-]=[N+]=C1C(=O)NC(=O)N2C3OC(CO[C@@H]12)C(O)C3O (some centres undefined) | > 200 µM | > 200 µM | –
